# Assays:
# [1] = molecular target: T1, human glucocorticoid receptor-α [GRX] isoform (Homo sapiens, UniProt P04150); experiment: Radioligand binding with human glucocorticoid receptor cytosol ([3H]-dexamethasone competition); details: GRX cytosol expressed in insect SF21 cells, [3H]-Dex ~0.9 nM, 4° C. overnight; Ki by Cheng-Prusoff, KL ~[…]; read-out: Ki (nM) GR
# T1 construct: host or cells: insect SF21 cells (baculovirus)
# T1 sequence (P04150 1-777): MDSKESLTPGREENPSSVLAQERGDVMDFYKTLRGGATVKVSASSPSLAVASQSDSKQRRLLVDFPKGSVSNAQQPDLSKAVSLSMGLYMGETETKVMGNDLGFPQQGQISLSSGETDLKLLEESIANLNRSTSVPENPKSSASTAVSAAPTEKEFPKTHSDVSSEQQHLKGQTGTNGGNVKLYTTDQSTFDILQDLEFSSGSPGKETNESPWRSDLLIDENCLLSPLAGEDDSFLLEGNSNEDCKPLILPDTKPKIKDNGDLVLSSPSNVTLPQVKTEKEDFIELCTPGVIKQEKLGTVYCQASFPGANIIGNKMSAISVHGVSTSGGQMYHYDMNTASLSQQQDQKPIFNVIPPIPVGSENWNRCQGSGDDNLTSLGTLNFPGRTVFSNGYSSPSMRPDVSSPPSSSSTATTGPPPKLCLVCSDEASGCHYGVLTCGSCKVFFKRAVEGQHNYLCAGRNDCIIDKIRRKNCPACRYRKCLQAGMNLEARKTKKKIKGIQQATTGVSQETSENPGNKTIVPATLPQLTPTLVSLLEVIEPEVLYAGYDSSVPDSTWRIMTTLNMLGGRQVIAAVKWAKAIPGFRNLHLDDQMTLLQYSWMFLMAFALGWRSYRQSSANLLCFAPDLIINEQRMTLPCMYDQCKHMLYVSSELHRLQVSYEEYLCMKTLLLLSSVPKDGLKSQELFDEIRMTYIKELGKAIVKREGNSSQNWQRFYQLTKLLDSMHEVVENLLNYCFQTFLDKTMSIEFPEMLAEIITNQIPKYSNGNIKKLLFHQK
# [2] = molecular target: T2, human progesterone receptor-A [PRA] isoform (Homo sapiens, UniProt P06401); experiment: Radioligand binding with human progesterone receptor cytosol ([3H]-progesterone competition); details: PRA cytosol expressed in insect SF21 cells, [3H]Prog ~0.8 nM, 4° C. overnight; Ki by Cheng-Prusoff, KL ~4.5 nM; read-out: Ki (nM) PR
# T2 construct: host or cells: insect SF21 cells (baculovirus)
# T2 sequence (P06401 1-769 isoform P06401-2): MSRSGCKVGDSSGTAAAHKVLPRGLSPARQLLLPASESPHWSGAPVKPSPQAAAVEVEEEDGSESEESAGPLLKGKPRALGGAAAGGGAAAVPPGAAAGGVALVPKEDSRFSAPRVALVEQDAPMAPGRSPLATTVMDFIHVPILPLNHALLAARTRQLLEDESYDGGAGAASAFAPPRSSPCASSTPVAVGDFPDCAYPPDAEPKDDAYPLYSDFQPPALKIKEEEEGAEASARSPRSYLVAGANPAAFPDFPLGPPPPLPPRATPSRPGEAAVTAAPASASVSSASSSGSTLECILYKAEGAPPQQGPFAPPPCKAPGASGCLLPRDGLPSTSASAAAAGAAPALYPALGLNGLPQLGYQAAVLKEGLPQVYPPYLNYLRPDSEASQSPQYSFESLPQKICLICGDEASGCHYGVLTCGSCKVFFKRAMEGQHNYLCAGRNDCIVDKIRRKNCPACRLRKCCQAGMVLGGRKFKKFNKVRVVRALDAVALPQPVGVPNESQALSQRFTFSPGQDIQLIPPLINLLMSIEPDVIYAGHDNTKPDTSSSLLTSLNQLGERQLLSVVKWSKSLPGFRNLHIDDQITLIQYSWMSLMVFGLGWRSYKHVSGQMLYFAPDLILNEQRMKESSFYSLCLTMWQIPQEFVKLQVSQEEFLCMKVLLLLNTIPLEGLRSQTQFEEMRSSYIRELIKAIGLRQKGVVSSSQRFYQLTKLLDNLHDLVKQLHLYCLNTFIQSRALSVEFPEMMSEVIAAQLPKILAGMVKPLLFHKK
Ki [1],Ki [2],SMILES
18 nM,733 nM,"C/C=C\C1Oc2cccc(OC)c2-c2ccc3c(c21)C(C)=CC(C)(C)N3 (stereo not drawn) [Example 180, (Z)-2,5-Dihydro-10-methoxy-5-(1-propenyl)-2,2,4-trimethyl-1H-[1]benzopyrano[3,4-f]quinoline]"
8.9 nM,≥ 10000 nM,"COC(=S)Oc1cccc(C2Oc3cccc(OC)c3-c3ccc4c(c32)C(C)=CC(C)(C)N4)c1 (stereo not drawn) [Example 104, O-[3-(2,5-Dihydro-10-methoxy-2,2,4-trimethyl-1H-[1]benzopyrano[3,4-f]quinolin-5-yl)phenyl]methylcarbonothioate]"
1 nM,870 nM,"COc1c(O)ccc2c1-c1ccc3c(c1C(c1ccccc1)O2)C(C)=CC(C)(C)N3 (stereo not drawn) [Example 248, 2,5-Dihydro-9-hydroxy-10-methoxy-2,2,4-trimethyl-5-phenyl-1H-[1]benzopyrano[3,4-f]quinoline]"
4.8 nM,46 nM,"CC1=CC(C)(C)Nc2ccc3c(c21)C(c1cccs1)Oc1ccc(O)c(Cl)c1-3 (stereo not drawn) [Example 383, 2,5-Dihydro-9-hydroxy-10-chloro-2,2,4-trimethyl-5-(2-thienyl)-1H-[1]benzopyrano[3,4-f]quinoline]"
428 nM,≥ 10000 nM,"COc1cccc2c1-c1ccc3c(c1C(/C=C\c1ccccc1)O2)C(C)=CC(C)(C)N3 (stereo not drawn) [Example 323, cis 2,5-Dihydro-10-methoxy-5-(2-phenylethenyl)-2,2,4-trimethyl-1H-[1]benzopyrano[3,4-f]quinoline]"
4.6 nM,27.8 nM,"COc1c(C)ccc2c1-c1ccc3c(c1C(C1C=C(C)CCC1)O2)C(C)=CC(C)(C)N3 (racemic) [Example 307, (+/−)2,5-Dihydro-9-methyl-10-methoxy-2,2,4-trimethyl-5-(1-methylcyclohexen-3-yl)-1H-[1]benzopyrano[3,4-f]quinoline]"
4.9 nM,9450 nM,"COc1cccc2c1-c1ccc3c(c1C(c1ccc(C)cc1)O2)C(C)=CC(C)(C)N3 (stereo not drawn) [Example 50, 2,5-Dihydro-10-methoxy-2,2,4-tnimethyl-5-(4-methylphenyl)-1H-[1]benzopyrano[3,4-f]quinoline]"
7.7 nM,≥ 10000 nM,COC(=O)/C=C/CC1Oc2cccc(OC)c2-c2ccc3c(c21)C(C)=CC(C)(C)N3 (stereo not drawn) [Example 194]
235 nM,4800 nM,"C=CC1(C2Oc3cccc(OC)c3-c3ccc4c(c32)C(C)=CC(C)(C)N4)CCCCC1 (stereo not drawn) [Example 139, 2,5-Dihydro-10-methoxy-5-(1-ethenyl-1-cyclohexyl)-2,2,4-trimethyl-1H-[1]benzopyrano[3,4-f]quinoline]"
4.7 nM,4840 nM,COc1ccc(Br)c2c1-c1ccc3c(c1C(C1C=CCCC1)O2)C(C)=CC(C)(C)N3 (stereo not drawn) [Example 297]
11.9 nM,1050 nM,"C=CCC1Oc2ccc(OC)c(OC)c2-c2ccc3c(c21)C(C)=CC(C)(C)N3 (stereo not drawn) [Example 130, 2,5-Dihydro-9,10-dimethoxy-2,2,4-trimethyl-5-(2-propenyl)-1H-[1]benzopyrano[3,4-f]quinoline]"
125 nM,2400 nM,CC1=C[C@H]([C@H]2Oc3ccc(O)c(Cl)c3-c3ccc4c(c32)C(C)=CC(C)(C)N4)CCC1 [Example 420]
13 nM,7920 nM,"COc1cccc2c1-c1ccc3c(c1C(c1ccc(F)cc1)O2)C(C)=CC(C)(C)N3 (stereo not drawn) [Example 30, 5-(4-Fluorophenyl)-2,5-dihydro-10-methoxy-2,2,4-trimethyl-1H-[1]benzopyrano[3,4-f]quinoline]"
638 nM,> 10000 nM,"COc1cccc2c1-c1ccc3c(c1C(c1cccc(C(=O)O)c1)O2)C(C)=CC(C)(C)N3 (stereo not drawn) [Example 108, 3-(2,5-Dihydro-10-methoxy-2,2,4-trimethyl-1H-[1]benzopyrano[3,4-f]quinolin-5-yl)benzoic Acid]"

SMILES,Ki [1],Ki [2]
"COc1cccc2c1-c1ccc3c(c1C(C1C=C(COC(C)=O)CCC1)O2)C(C)=CC(C)(C)N3 [Example 163, rel (5R, 3′R) 2,5-Dihydro-10-methoxy-5-(1-acetoxymethyl-3-cyclohexenyl)-2,2,4-trimethyl-1H-[1]benzopyrano[3,4-f]quinoline]",2.6 nM,≥ 10000 nM

# From patent US6506766B1 (Abbott Laboratories, priority 1998, dated 2003)
